Laboratory results published in article PMC10119423, “From PERK to RIPK1: Design, synthesis and evaluation of novel potent and selective necroptosis inhibitors” (Frontiers in Chemistry, 2023).
Like-named read-outs stand apart in the source and are kept apart here.

Key:
300 kinases = test system: 300 kinases; parameters: method as in Axten et al., 2013; conditions: 10 µM, out of 300 kinases; ref Axten et al., 2013; cited from earlier work
MEFs = experiment: RIPK1 kinase-dependent apoptosis (hTNF + TAK1i) in MEFs, Sytox Green; assay type: cell-based; conditions: Mus musculus, TAK1i + hTNF (100 pg/mL)
From the text: In MEFs, TNF together with the pan caspases inhibitor zVAD.fmk induces RIPK1-dependent necroptosis while TNF together with TAK1 inhibitor induces RIPK1 kinase-dependent apoptosis. We also included the conditions selected for the Western blot experiments, where necroptosis was induced by the combination of hTNF, zVAD.fmk and TAK1 inhibitor.

RIPK1 = biological target: T1, RIPK1 (Mus musculus, UniProt Q60855); experiment: RIPK1 autophosphorylation (pS166) by Western blot in MEFs stimulated with hTNF + TAK1i + zVAD.fmk; assay type: cell-based; conditions: immortalised MEFs, 30 min pretreatment with zVAD.fmk 50 μM, TAK1i 1 μM and compound, hTNF 20 ng/ml for 2.5 h, read-out: RIPK1 inhibition (IC50 estimated from a Western blot)
T1 construct: endogenous in cells; host or cells: immortalized mouse embryonic fibroblasts (MEFs, C57Bl6/J)
T1 sequence (Q60855 1-656): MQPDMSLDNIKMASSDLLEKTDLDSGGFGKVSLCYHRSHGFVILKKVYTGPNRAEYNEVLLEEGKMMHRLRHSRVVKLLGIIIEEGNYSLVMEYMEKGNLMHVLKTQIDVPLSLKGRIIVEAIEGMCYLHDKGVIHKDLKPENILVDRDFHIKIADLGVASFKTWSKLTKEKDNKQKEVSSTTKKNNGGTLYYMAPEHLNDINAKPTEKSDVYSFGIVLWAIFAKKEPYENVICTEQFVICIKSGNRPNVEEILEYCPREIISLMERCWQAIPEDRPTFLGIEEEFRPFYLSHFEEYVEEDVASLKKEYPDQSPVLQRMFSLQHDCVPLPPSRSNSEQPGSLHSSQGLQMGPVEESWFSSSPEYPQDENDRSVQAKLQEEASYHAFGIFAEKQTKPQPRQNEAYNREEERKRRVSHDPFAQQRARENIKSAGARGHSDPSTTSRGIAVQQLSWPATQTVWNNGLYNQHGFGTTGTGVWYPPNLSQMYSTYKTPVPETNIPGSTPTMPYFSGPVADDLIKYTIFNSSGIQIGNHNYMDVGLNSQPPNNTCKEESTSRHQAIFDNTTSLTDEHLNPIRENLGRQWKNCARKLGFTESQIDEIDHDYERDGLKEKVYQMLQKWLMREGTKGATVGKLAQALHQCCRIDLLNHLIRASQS
Experimental: (§1) MEFs were seeded in 6-well plates at a density of 300.000 cells/well in 2 mL. The next day, the cells were suspended in 1 mL of medium and pre-treated for 30 min with the indicated compounds at 1/5 dilutions series for PERK ranging from 5 to 0.04 µM and 1 μg/mL of Tm followed by 4 h treatment with 20 ng/mL of hTNF. For RIPK1, the cells were pre-treated at 1/10 dilutions series ranging from 10 to 0.01 nM, 50 µM zVAD.fmk and 1 µM TAKi before stimulation with 20 ng/mL of hTNF for 2.5 h. Then, the cells were washed two times with 1 mL of ice-cold PBS before lysis in 0.2 mL of Laemmli buffer 1x (10% (w/v) SDS, 50% glycerol, 0.5% bromophenol blue, 250 mM Tris–HCl pH 6.8) and 250 mM of dithiothreitol (DTT). The cell lysate was then collected and boiled at 95 °C for 10min and stored at −20°C. Proteins expression was later monitored by immunoblotting.
Activation of PERK was induced by stimulation of the cells with Tunicamycin, as previsouly reported ([Bull and Thiede, 2012]). More precisely, the immortalised MEFs were pre-incubated for 30 min with the analogues 18–34 at different concentrations (0.04, 0.2, 1, and 5 µM) prior to 4 h stimulation with Tunicamycin (1 μg/mL). […] Their activities were evaluated by comparing the intensity of the signal to unstimulated MEFs (considered as zero phosphorylation) and Tunicamycin stimulated cells (considered as 100% PERK phosphorylation). The 12 compounds (18–20, 22–29 and 34) that had lost their inhibitory capacity on PERK were then tested for their ability to inhibit RIPK1 as shown in Figures 6A–H. Activation and autophosphorylation of RIPK1 was induced by stimulating the cells with TNF in the presence of TAK1 inhibitor and of the pan-caspases inhibitor zVAD.fmk, a well established necroptotic trigger ([Vanlangenakker et al., 2011]). The MEFs were pre-incubated for 30 min with the different compounds (0.01 nM–1000 nM) and then stimulated with human TNF (20 ng/mL) for 2.5 h. Similar to the PERK assessment, IC50 values for RIPK1 inhibition were estimated as a range of concentrations, and are reported in Table 1. These experiments provide an estimation of the specificity of our analogues against PERK and RIPK1 in comparison to the benchmark GSK’157 already reported as a potent PERK and RIPK1 inhibitor.

immortalized MEFs = experiment: RIPK1 kinase-dependent necroptosis (hTNF + zVAD.fmk) in MEFs, Sytox Green; assay type: cell-based, mouse; conditions: for IC50: Mus musculus; for necroptosis inhibition (in words): mouse cells (MEFs), RIPK1-dependent necroptosis;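 for all read-outs here: cell death taken as background-corrected Sytox Green fluorescence relative to the maximal signal of cells fully permeabilized with 0.1% Triton X-100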
Experimental: In brief, the cells were seeded in duplicate at 10,000 cells per well in a 96-well adherent plate and incubated overnight at 37°C with 5% CO2. […] All the compound stock solutions were prepared in DMSO at 200 µM concentration. After stimulating the cells with human TNF at 20 ng/mL the plate was transferred to the incubator. […] The cell death was calculated by subtracting the background fluorescence from the induced Sytox Green fluorescence and by dividing the obtained result by the maximal fluorescence (minus the background fluorescence) obtained by permeabilization of the cells by using Triton X-100 at a final concentration of 0.1%. Curves were plotted in GraphPad 9 for the IC50 calculation.
Consequently, the compounds were evaluated for their potential protection of RIPK1-mediated necroptosis following human TNF stimulation.

HT-29 = experiment: Necroptosis (hTNF + TAK1i + zVAD.fmk) in HT-29 cells, Sytox Green; conditions: Homo sapiens, HT-29, read-out: Necroptosis hTNF + TAK1i + zVAD.fmk HT-29 IC50
Experimental: In brief, the cells were seeded in duplicate at 10,000 cells per well in a 96-well adherent plate and incubated overnight at 37°C with 5% CO2. […] All the compound stock solutions were prepared in DMSO at 200 µM concentration. After stimulating the cells with human TNF at 20 ng/mL the plate was transferred to the incubator. Sytox Green intensity was measured in function of time at 0, 14 and 24 h with an excitation filter of 485 nm, an emission filter of 520 nm. The cell death was calculated by subtracting the background fluorescence from the induced Sytox Green fluorescence and by dividing the obtained result by the maximal fluorescence (minus the background fluorescence) obtained by permeabilization of the cells by using Triton X-100 at a final concentration of 0.1%. Curves were plotted in GraphPad 9 for the IC50 calculation.
To induce necroptosis in human colorectal adenocarcinoma cell line (HT-29) together with hTNF and the pan caspases inhibitor zVAD.fmk, TAK1 inhibitor is also needed.

PERK = biological target: T2, PERK (Mus musculus, UniProt Q9Z2B5); experiment: PERK autophosphorylation by Western blot in tunicamycin-stimulated immortalized MEFs; assay type: cell-based; conditions: immortalized MEFs, 30 min pretreatment, tunicamycin 1 μg/ml for 4 h; PERK autophosphorylation; read-out: PERK inhibition (IC50 estimated from a Western blot)
T2 construct: Immortalized MEFs were pretreated for 30 min with increasing concentrations of GSK’157 and the indicated compounds and stimulated with tunicamycin; endogenous in cells; host or cells: immortalized mouse embryonic fibroblasts (MEFs, C57Bl6/J)
T2 sequence (Q9Z2B5 29-1114): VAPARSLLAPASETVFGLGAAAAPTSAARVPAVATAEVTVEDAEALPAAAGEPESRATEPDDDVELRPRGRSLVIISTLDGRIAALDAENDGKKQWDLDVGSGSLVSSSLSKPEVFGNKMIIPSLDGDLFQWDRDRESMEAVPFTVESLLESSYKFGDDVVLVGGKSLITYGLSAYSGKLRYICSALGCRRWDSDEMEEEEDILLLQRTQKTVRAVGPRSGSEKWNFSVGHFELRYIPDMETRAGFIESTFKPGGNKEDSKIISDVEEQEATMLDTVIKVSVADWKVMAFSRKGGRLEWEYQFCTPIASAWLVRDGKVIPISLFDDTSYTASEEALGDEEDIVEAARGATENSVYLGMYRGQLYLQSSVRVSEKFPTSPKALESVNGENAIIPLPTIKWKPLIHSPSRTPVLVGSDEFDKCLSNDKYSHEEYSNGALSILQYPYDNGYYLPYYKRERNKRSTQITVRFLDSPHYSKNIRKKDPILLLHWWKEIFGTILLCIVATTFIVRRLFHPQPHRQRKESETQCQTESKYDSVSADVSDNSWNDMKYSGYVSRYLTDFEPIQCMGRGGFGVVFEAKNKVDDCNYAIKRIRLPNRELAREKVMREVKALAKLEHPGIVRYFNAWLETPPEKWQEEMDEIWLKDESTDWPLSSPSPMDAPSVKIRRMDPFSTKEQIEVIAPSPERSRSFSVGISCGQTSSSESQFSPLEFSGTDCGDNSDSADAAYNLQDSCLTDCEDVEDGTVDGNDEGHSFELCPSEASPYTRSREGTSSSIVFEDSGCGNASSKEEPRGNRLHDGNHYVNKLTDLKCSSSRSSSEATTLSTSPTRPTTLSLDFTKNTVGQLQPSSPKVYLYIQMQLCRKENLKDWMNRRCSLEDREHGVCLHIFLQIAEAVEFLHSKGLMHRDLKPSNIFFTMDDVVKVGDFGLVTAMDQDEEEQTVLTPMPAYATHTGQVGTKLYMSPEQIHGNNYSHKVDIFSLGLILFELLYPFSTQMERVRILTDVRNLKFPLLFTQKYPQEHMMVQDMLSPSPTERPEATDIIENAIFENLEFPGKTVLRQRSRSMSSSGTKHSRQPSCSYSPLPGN
Experimental: as §1
Their activities were evaluated by comparing the intensity of the signal to unstimulated MEFs (considered as zero phosphorylation) and Tunicamycin stimulated cells (considered as 100% PERK phosphorylation). […] The MEFs were pre-incubated for 30 min with the different compounds (0.01 nM–1000 nM) and then stimulated with human TNF (20 ng/mL) for 2.5 h. Similar to the PERK assessment, IC50 values for RIPK1 inhibition were estimated as a range of concentrations, and are reported in Table 1.

panel of 294 kinases = test system: panel of 294 kinases; parameters: method as in Axten et al., 2012; conditions: 10 µM, ref Axten et al., 2012; cited from earlier work
[1] = 24 h, MEFs, hTNF + zVAD.fmk (20 ng/mL), Table 2, read-out: Necroptosis hTNF + zVAD.fmk MEFs IC50
[2] = 24 h, immortalized MEFs, zVAD-fmk 50 μM + hTNF 20 ng/ml, Sytox Green at 24 h, Table 1 series, read-out: IC50 necroptosis
[3] = MEFs, hTNF + zVAD.fmk, read-out: IC50 necroptosis inhibition

Structure (SMILES)	IC50 (RIPK1) [nM]	IC50 (PERK) [nM]	IC50 (immortalized MEFs; [2]) [nM]	other results
Cc1cccc(CC(=O)N2CCc3c2ccc(-c2cn(C)c4ncnc(N)c24)c3F)n1 [Compound 10, reference compound]	0.1 to 1			number of kinases inhibited with more than 80% (300 kinases): 17; IC50 (MEFs): 3.7 nM; IC50 (immortalized MEFs; 24 h, read-out: IC50 necroptosis): 0.42 nM; IC50 (immortalized MEFs; [1]): 0.7 nM; IC50 (HT-29): 3.1 nM
Cn1cc(-c2ccc3c(c2F)CCN3C(=O)Cc2ccc(F)cn2)c2c(N)ncnc21 [Compound 18]	≥ 10	> 5000	13.5	
Cn1cc(-c2ccc3c(c2F)CCN3C(=O)Cc2ccc(Cl)cn2)c2c(N)ncnc21 [Compound 19]	1 to 10	> 5000	2.5	
Cn1cc(-c2ccc3c(c2F)CCN3C(=O)Cc2ccc(Br)cn2)c2c(N)ncnc21 [Compound 20]	1 to 10	> 5000	3.2	
Cc1ccc(CC(=O)N2CCc3c2ccc(-c2cn(C)c4ncnc(N)c24)c3F)nc1 [Compound 21]	≥ 10	1000 to 5000	37	
COc1ccc(CC(=O)N2CCc3c2ccc(-c2cn(C)c4ncnc(N)c24)c3F)nc1 [Compound 23]	≥ 10	≥ 5000	39	
Cn1cc(-c2ccc3c(c2F)CCN3C(=O)Cc2ccc(C3CC3)cn2)c2c(N)ncnc21 [Compound 24]	≥ 10	> 5000	33.5	
Cn1cc(-c2ccc3c(c2F)CCN3C(=O)Cc2ccc(C(C)(C)C)cn2)c2c(N)ncnc21 [Compound 25]	≥ 10	> 5000	40	
Cn1cc(-c2ccc3c(c2F)CCN3C(=O)Cc2ccc(O)cn2)c2c(N)ncnc21 [Compound 26]	≥ 10	≥ 5000	2530	IC50 (immortalized MEFs; [3]): > 2000 nM
Cn1cc(-c2ccc3c(c2F)CCN3C(=O)Cc2ccncc2)c2c(N)ncnc21 [Compound 27]	≥ 10	> 5000	3020	IC50 (immortalized MEFs; [3]): > 2000 nM
Cn1cc(-c2ccc3c(c2F)CCN3C(=O)Cc2ccc(Cc3ccccc3)cn2)c2c(N)ncnc21 [Compound 28]	≥ 10	≥ 5000	62	
Cn1cc(-c2ccc3c(c2F)CCN3C(=O)Cc2ccc(-c3ccccc3)cn2)c2c(N)ncnc21 [Compound 29]	≥ 10	> 5000	> 10000	
Cn1cc(-c2ccc3c(c2F)CCN3C(=O)Cc2ccc(F)cc2)c2c(N)ncnc21 [Compound 30]	0.1 to 1	1000 to 5000	0.01	fold higher potency than GSK’157 (necroptosis IC50) (immortalized MEFs; MEFs, hTNF + zVAD.fmk): 40 fold
Cn1cc(-c2ccc3c(c2F)CCN3C(=O)Cc2ccc(Cl)cc2)c2c(N)ncnc21 [Compound 31]	0.1 to 1	1000 to 5000	0.4	
Cn1cc(-c2ccc3c(c2F)CCN3C(=O)Cc2ccc(Br)cc2)c2c(N)ncnc21 [Compound 32]	1 to 10	1000 to 5000	0.3	
Cc1ccc(CC(=O)N2CCc3c2ccc(-c2cn(C)c4ncnc(N)c24)c3F)cc1 [Compound 33]	≥ 10	1000 to 5000	> 10000	necroptosis inhibition (in words) (immortalized MEFs): complete loss of necroptosis inhibition
Cn1cc(-c2ccc3c(c2F)CCN3C(=O)Cc2ccc(C(F)(F)F)cc2)c2c(N)ncnc21 [Compound 34]	1 to 10	≥ 5000	1.1	
Cn1cc(-c2ccc3c(c2)CCN3C(=O)Cc2cccc(C(F)(F)F)c2)c2c(N)ncnc21 [GSK’414, 7-methyl-5-(1-{[3-(trifluoromethyl)phenyl]acetyl}-2,3-dihydro-1H-indol-5-yl)-7H-pyrrolo[2,3-d]pyrimidin-4-amine]				number of kinases inhibited with more than 85% (panel of 294 kinases): 20
CN1C(=O)[C@@H](NC(=O)c2n[nH]c(Cc3ccccc3)n2)COc2ccccc21 [GSK’772, reference compound]				IC50 (MEFs): > 100 nM; IC50 (immortalized MEFs; [1]): > 100 nM; necroptosis inhibition (in words) (immortalized MEFs): no activity; IC50 (HT-29): 0.2 nM
